# In PMC10458118, “Bitter Almond Albumin ACE-Inhibitory Peptides: Purification, Screening, and Characterization In Silico, Action Mechanisms, Antihypertensive Effect In Vivo, and Stability” (Molecules, 2023):
# Ends that are not written are not given here.
# Key:
# [1] = tested on: ACE; conditions: cited from earlier work; for ACE-inhibitory activity in words: 30 (ADMIET, QTPHQ, ELHPQ), ref 27 (RTVFDGEL, RADVFNPR); for IC50: read-out: Inhibitory capacity on ACE (IC50)
# From the text: The results of ultra-high-performance liquid chromatography and quantum-ultra mass spectrometric determination of BAAH-4-C are shown in Table 1 and Figure 4. Five oligopeptides, […]([…]), Lys-Thr-Glu-Thr-Gln-Pro (KTETQP), […]([…]), […]([…]), and Thr-Cys-Gly-Ala-Ser (TCGAS) were obtained. However, only […] offered potential antihypertension based on the vector machine software score (1.35) calculated by the database AHTpin [28]. […] As shown in the Lineweaver–Burk diagram of ACE, the Km increased with the increasing […] dose, but the maximum velocity (Vmax) decreased when the […] dose increased, which was the typical effect of noncompetitive inhibitors. Peptides such as […] an ... || To the best of our knowledge, this is the first study to simultaneously investigate the capacities of bitter almond albumin peptides to inhibit ACE and bind with zinc ions. Previous studies evidenced that thermolysin could quickly cleave the amide bonds linked with hydrophobic amino acid residues, with the released hydrophobic amino acid residues playing an important role in ACE inhibition; whereas papain cleaves multiple sites of polypeptide chains, especially peptide bonds linking with acidic amino acid residues (Glu and Asp), Arg, and aromatic amino acids which was helpful for the release o ... || (+ 2 further places)
# [2] = Chelating ability toward zinc ions, 4-(β-Pyridinazo)-resorcinol method; assay type: physicochemical; conditions: 0.75 mmol·L^−1 ZnSO4 in HEPES-KOH buffer, peptide solution 0.8 mg·mL^−1, 15 min, 25 °C; repeated three or more times
# Protocol: (§1) In short, 0.75 mmol·L^−1 of ZnSO4 (dissolved in 0.2 mmol·L^−1 of HEPES-KOH buffer) and 10 mmol·L^−1 of 1,4-Dithiothreitol were added into a glass tube. The tube was incubated in the THZ-82AB thermostatic oscillator (195 r·min^−1 and 25 °C). Five minutes later, the zinc concentration in the glass tube was measured and read as C0. Next, the BAAH peptides aqueous solution (0.8 mg·mL^−1) was added and the mixture was continuously shaken for another 15 min. Then, the zinc concentration in the glass tube was measured and read as Ct. The chelating ability of BAAH peptides toward zinc ions was calculated as follows, and ethylenediamine tetraacetic acid (EDTA) was used as the positive control. (1) Chelating ability towards zinc ions (mg·g^−1) = (C0−Ct) × V/m where V and m represent the volume of the reaction solution (mL) and the mass weight of BAAH peptides (g), respectively.
# [3] = tested on: SHR; conditions: cited from earlier work
# From the text: Zinc chelation may change the coordination of peptides toward ACE, resulting in lower ACE-inhibitory activity and antihypertension.
# [4] = biological target: T1, ACE (Oryctolagus cuniculus, UniProt P12822); assay: ACE inhibition, N-hippuryl-L-histidyl-L-leucine method; assay type: biochemical; conditions: synthesized peptide; HHL 5 mmol·L^−1, boric acid buffer pH 8.3, 37 °C, 10 min pre-incubation, 1 h reaction, absorbance at 228 nm; read-out: Inhibitory effect against ACE (IC50)
# T1 construct: purchased Sigma (St. Louis, MO, USA)
# T1 sequence (P12822 34-1310): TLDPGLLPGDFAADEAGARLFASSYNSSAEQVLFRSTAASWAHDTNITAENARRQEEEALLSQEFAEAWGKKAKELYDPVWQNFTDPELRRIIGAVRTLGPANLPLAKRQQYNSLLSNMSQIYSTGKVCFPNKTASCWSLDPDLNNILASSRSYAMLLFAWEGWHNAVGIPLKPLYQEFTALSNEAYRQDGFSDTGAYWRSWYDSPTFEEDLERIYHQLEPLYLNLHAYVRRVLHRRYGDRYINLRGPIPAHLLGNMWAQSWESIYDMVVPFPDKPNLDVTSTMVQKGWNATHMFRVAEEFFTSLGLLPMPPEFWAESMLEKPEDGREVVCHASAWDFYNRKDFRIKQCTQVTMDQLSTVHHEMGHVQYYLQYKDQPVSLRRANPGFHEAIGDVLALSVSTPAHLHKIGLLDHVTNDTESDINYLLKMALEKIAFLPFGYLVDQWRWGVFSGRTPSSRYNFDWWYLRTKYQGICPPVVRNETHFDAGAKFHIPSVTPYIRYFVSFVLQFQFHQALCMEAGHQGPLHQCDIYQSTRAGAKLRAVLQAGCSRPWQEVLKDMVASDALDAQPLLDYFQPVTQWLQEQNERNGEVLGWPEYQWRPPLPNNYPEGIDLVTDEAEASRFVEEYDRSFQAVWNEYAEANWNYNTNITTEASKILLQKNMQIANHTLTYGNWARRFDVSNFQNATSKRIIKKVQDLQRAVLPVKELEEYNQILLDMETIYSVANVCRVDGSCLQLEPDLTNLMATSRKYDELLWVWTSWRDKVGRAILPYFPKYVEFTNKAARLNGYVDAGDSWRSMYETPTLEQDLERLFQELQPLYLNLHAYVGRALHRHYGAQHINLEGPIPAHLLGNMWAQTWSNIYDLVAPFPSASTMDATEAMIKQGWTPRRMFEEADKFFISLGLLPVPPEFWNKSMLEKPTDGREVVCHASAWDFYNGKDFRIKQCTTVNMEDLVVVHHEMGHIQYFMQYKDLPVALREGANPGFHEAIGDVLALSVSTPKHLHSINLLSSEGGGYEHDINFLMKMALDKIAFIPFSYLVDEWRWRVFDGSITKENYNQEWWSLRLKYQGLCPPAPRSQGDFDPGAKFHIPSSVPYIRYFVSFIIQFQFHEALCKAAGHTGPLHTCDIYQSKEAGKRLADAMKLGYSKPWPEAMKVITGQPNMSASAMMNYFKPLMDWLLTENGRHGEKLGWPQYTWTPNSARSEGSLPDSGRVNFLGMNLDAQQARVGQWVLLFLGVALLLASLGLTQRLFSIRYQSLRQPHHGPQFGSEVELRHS
# Protocol: The N-hippuryl-L-histidyl-L-leucine method was utilized for the determination of the inhibiting capacity of BAAH peptides toward ACE [30]. In a glass test tube, 0.2 mL of ACE solution (dissolved in boric acid buffer, pH 8.3) and 0.2 mL of BAAH peptide aqueous solution (1 mg·mL^−1) were added. The mixture in the glass tube was shaken in a water bath at 143 r·min^−1 and 37 °C. Ten minutes later, 0.65 mL of N-hippuryl-L-histidyl-L-leucine (5 mmol·L^−1, dissolved in boric acid buffer, pH 8.3) was added. After continuously shaking for 1 h, 0.75 mL of dilute hydrochloric acid was added into the tube. Next, hippuric acid produced in the reaction solution was extracted by ethyl acetate (1.25 mL). The hippuric acid solution (the supernatant) was sucked out with a pipette (DG-1, Dragon TopPette, Beijing, China) and heated at 70 °C to evaporate the ethyl acetate. The residual hippuric acid was resolved in distilled water, and its absorbance at 228 nm was read. The inhibition capacity of BAAH peptides against ACE was the percentage of the absorbance reduction value at 228 nm to the absorbance of the control group (without BAAH peptide). The concentration of BAAH peptides was defined as IC50 when the activity of ACE was inhibited by half.
# [5] = Zinc-chelating ability after simulated gastrointestinal digestion (pepsin, then pancreatin); assay type: in vitro ADME; conditions: 5 mg/mL peptide; pepsin pH 2.00, 90 min, then pancreatin pH 7.00, 150 min, 37 °C; then 4-(β-Pyridinazo)-resorcinol method
# Protocol: as §1
# In a stirring (115 r·min^−1) water bath at 37 °C, the BAAH peptides’ aqueous solution (5 mg/mL, 10 mL) was added into a glass test tube, and the pH value was adjusted to 2.00 ± 0.05 with dilute hydrochloric acid solution (0.5 mol·L^−1). […] Afterward, both the chelating ability toward zinc ion, and the inhibition activity of BAAH peptides against ACE were determined using the 4-(β-Pyridinazo)-resorcinol method and N-hippuryl-L-histidyl-L-leucine method, respectively. […]
# [6] = tested on: ACE; assay: ACE inhibition after simulated gastrointestinal digestion (pepsin, then pancreatin); assay type: in vitro ADME; conditions: pepsin pH 2.00, 90 min, then pancreatin pH 7.00, 150 min, 37 °C; p > 0.5 as printed
# Protocol: The N-hippuryl-L-histidyl-L-leucine method was utilized for the determination of the inhibiting capacity of BAAH peptides toward ACE [30]. In a glass test tube, 0.2 mL of ACE solution (dissolved in boric acid buffer, pH 8.3) and 0.2 mL of BAAH peptide aqueous solution (1 mg·mL^−1) were added. The mixture in the glass tube was shaken in a water bath at 143 r·min^−1 and 37 °C. Ten minutes later, 0.65 mL of N-hippuryl-L-histidyl-L-leucine (5 mmol·L^−1, dissolved in boric acid buffer, pH 8.3) was added. After continuously shaking for 1 h, 0.75 mL of dilute hydrochloric acid was added into the tube. Next, hippuric acid produced in the reaction solution was extracted by ethyl acetate (1.25 mL). The hippuric acid solution (the supernatant) was sucked out with a pipette (DG-1, Dragon TopPette, Beijing, China) and heated at 70 °C to evaporate the ethyl acetate. The residual hippuric acid was resolved in distilled water, and its absorbance at 228 nm was read. The inhibition capacity of BAAH peptides against ACE was the percentage of the absorbance reduction value at 228 nm to the absorbance of the control group (without BAAH peptide). The concentration of BAAH peptides was defined as IC50 when the activity of ACE was inhibited by half. Captopril was used as the positive control. […]
substance,measurement,setting,value
ELHPQ [peptide derived from canary seeds],ACE-inhibitory activity in words,[1],high ACE-inhibitory activities
FMRWRDRFL [peptide isolated from tombul hazelnut],IC50,[1],260 µM
KTETQP [KTETQP],Chelating ability toward zinc ions,[2],19.30 ± 1.46 e mg·g^−1
ADMIET [peptide identified in Lepidium meyenii],ACE-inhibitory activity in words,[1],high ACE-inhibitory activities
QPPAAAAAAGAG,Chelating ability toward zinc ions,[2],1.14 ± 0.01 g mg·g^−1
GYGYNY [camellia peptide],Antihypertensive effects on SHR,[3],dose-dependent antihypertensive effects
same,Effect of the addition of zinc ions on antihypertension,[3],reduce
RPPSEDEDQE,IC50,[4],206 µM
same,Chelating ability toward zinc ions after gastrointestinal digestion,[5],18.55 ± 0.95 mg/g
same,"Zinc-chelating ability and ACE-inhibitory capacity after hydrolysis of gastrointestinal proteases, versus untreated peptide",[6],not significantly reduced
HLNVVHEN [peptide identified from walnut protein],ACE inhibitory pattern,[1],noncompetitive
PGSGCAGTDL [called Mung bean-derived in b48],Antihypertensive effects on SHR,[3],dose-dependent antihypertensive effects
same,Effect of the addition of zinc ions on antihypertension,[3],reduce
same,ACE inhibitory pattern,[1],noncompetitive
KYPHVF [symbiotic peptide],ACE inhibition ability after zinc chelation,[1],not significantly reduced
LVRYYLLVR [peptide from hazelnut protein],ACE inhibitory pattern,[1],noncompetitive
RADVFNPR [peptide derived from palm kernel glutelin-1],ACE-inhibitory activity in words,[1],excellent ability to restrain ACE
RTVFDGEL [peptide derived from palm kernel glutelin-1],ACE-inhibitory activity in words,[1],excellent ability to restrain ACE
EKTFLLYSCPHR [peptide identified from camel milk],IC50,[1],312 µM
QTPHQ [peptide derived from canary seeds],ACE-inhibitory activity in words,[1],high ACE-inhibitory activities
LYSPLLKYFD [peptide from rice bran],Antihypertensive effects on SHR,[3],dose-dependent antihypertensive effects
same,Effect of the addition of zinc ions on antihypertension,[3],reduce
